Consider one compound from US20250302780A1, “METHOD OF TREATING PREMATURE EJACULATION IN HUMAN MALES WITHOUT SYMPTOMS OF BENIGN PROSTATIC HYPERTROPHY (BPH) USING TAMSULOSIN 0.2MG QOD WHICH DELAYS EJACULATION BY REDUCING THE RATE OF SECRETION AND TRANSPORT BY SEMINAL VESICLES AND PROSTATE IN THE GENITOURINARY TRACT” (Wustashire, priority 2024, published 2025).

Structures are written as SMILES. Read-outs that look alike come from different tables or passages of the source.

The conditions of data set [1]: cited from earlier work.
For data set [2] the following is noted: cited from earlier work. This is another data set of the same source.
Data set [3] is described as follows: Focused analysis of published BPH/LUTS studies: risk of abnormal ejaculation (anejaculation or significantly reduced ejaculate) with tamsulosin. It is filed as in vivo, human. On the procedure: To objectively determine an effective tamsulosin dose for treating premature ejaculation in patients without benign prostatic hypertrophy (BPH), a focused analysis of relevant well designed research studies that examined the abnormal ejaculation side effects of tamsulosin in BPH treatment based on combined data derived from multiple sources was conducted (www.accessdata.fda.gov, n.d.; Soliman et al, 2023; Shim et al., 2016). […] These studies focused on evaluating tamsulosin treatment outcomes in patients with BPH and lower urinary tract symptoms (LUTS). The analysis leveraged the identical mechanism of action of tamsulosin in both BPH/LUTS and premature ejaculation with respect to non-vascular smooth muscle relaxation in the genitourinary tract.
The graph plots administered tamsulosin quantity in mg on the x-axis against the calculated percentage risks of these dysfunctional sequelae on the y-axis.
Further, the FIG. 4 illustrates test data on calculated risk of abnormal or adverse ejaculatory side effects at different dosages. […] Quantitative data points are shown for tamsulosin at doses of 0.8 mg, 0.4 mg, and 0.2 mg taken either on a daily (QD) basis or every other day (QOD).

For data set [4] the following is noted: 0.2 mg QD, after 8 weeks (Zhang et al.); cited from earlier work.

In the case of `CCOc1ccccc1OCCN[C@H](C)Cc1ccc(OC)c(S(N)(=O)=O)c1` [tamsulosin], the “risk of abnormal or adverse ejaculatory side effects” value in data set [1] (0.4 mg QD (daily)) is given as 8.4%. Further, the “abnormal ejaculatory risk reduction” value in data set [1] (0.4 mg converted from QD to QOD (Soliman et al.)) is reported as 5 fold. Besides, in data set [1] (0.8 mg QD (daily)), the “risk of abnormal or adverse ejaculatory side effects” value is listed as 18.1%. The “efficacy for mild to moderate BPH symptoms” value in data set [2] (0.2 mg QD (Shim et al.)) was “effective”. The “therapeutic efficacy of QD dosing versus alternating day dosing” value in data set [2] (QD vs alternating day (Soliman et al.)) is “clinically similar”. Besides, the “risk of ejaculatory sequelae” value in data set [3] (0.4 mg QOD (every other day), calculated from 5-fold reduction) is reported as 1.68%. In addition, the “drop in abnormal ejaculatory risk likelihood” value in data set [3] (dose reduction 0.4 mg QD to 0.2 mg QD) was about 2.15 fold. The “reduction of projected abnormal ejaculatory risk” value in data set [3] (halving 0.8 mg QD to 0.4 mg QD) came out at 53.6%. In data set [4], the “increase of intravaginal ejaculation latency time (IELT)” value was 1.14 min and the “risk of adverse events” value is 2.6%.
